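Compound exposure: 48 hours, 5 concentrations, 96-well plates. At the GI50, growth is halved. The concentration for full growth arrest is given as TGI.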
Key:
Test in all cases: NCI-60 cell line screen, 48 h
DLD-1 colon = test system: DLD-1 colon
HOP-62 NSCLC = test system: HOP-62 NSCLC
KM20L2 colon = test system: KM20L2 colon
M14 melanoma = test system: M14 melanoma
MDA-MB-231 breast = test system: MDA-MB-231 breast
MDA-MB-435 = test system: MDA-MB-435
RXF 393 renal = test system: RXF 393 renal
SN12C renal = test system: SN12C renal
TK-10 renal = test system: TK-10 renal
UO-31 renal = test system: UO-31 renal

Work on O=C(/C=C/c1ccccc1)CCN1CCOCC1 yielded a TGI (DLD-1 colon) of 22.1 µM, a TGI (HOP-62 NSCLC) of 64 µM and a TGI (KM20L2 colon) of 31.2 µM. It also gave a TGI (M14 melanoma) of 29 µM, a TGI (MDA-MB-231 breast) of 35.1 µM and a TGI (MDA-MB-435) of 30.9 µM. It also gave a TGI (RXF 393 renal) of 26.1 µM, a TGI (SN12C renal) of 35.9 µM and a TGI (TK-10 renal) of 26.7 µM. The TGI (UO-31 renal) was 26.6 µM.

With NC(=O)c1csc(C2OC(CO)C(O)C2O)n1 (stereo unspecified) the TGI (DLD-1 colon) was > 7200 µM, the GI50 (HOP-62 NSCLC) was 44.7 µM and the TGI (HOP-62 NSCLC) was 3110 µM. The TGI (KM20L2 colon) was > 9200 µM, the GI50 (M14 melanoma) was 10.2 µM and the TGI (M14 melanoma) was 5650 µM. For the same compound, the GI50 (MDA-MB-231 breast) was > 73.8 µM, the TGI (MDA-MB-231 breast) was > 6480 µM and the GI50 (MDA-MB-435) was 43.7 µM. For the same compound, the TGI (MDA-MB-435) was > 4870 µM, the TGI (RXF 393 renal) was 6320 µM and the TGI (SN12C renal) was > 8480 µM. The GI50 (TK-10 renal) was > 74.5 µM, the TGI (TK-10 renal) was > 10000 µM and the GI50 (UO-31 renal) was 44.6 µM. It also gave a TGI (UO-31 renal) of 1740 µM.
